Like-named read-outs stand apart in the source and are kept apart here.
Legend:
VCAM-1 = assay: TNFα-induced adhesion molecule expression, Western analysis; type: cell-based; conditions: human endothelial cells, TNFα 100 ng/mL 6 hours, 25 μM compound
Protocol: (§1) Like endothelial cells in the body, HUVECs will proliferate in response to several growth factors, and will respond to inflammatory cytokines such as TNFα and IL-1β. Western analyses were conducted with human endothelial cells to evaluate the effects of the SK inhibitors on signaling proteins known to be regulated by TNFα. In these experiments, the cells were serum-starved for 24 hours and then exposed to TNFα (100 ng/mL) for 6 hours. Cell lysates from treated cells were assayed for the adhesion molecules ICAM-1 and VCAM-1. TNFα caused marked increases in the expression levels of adhesion proteins involved in leukocyte recruitment, including ICAM-1 and VCAM-1.

ICAM-1 = assay: as above; type: cell-based; conditions: human endothelial cells, TNFα 100 ng/mL 6 hours, 25 μM compound
Protocol: as §1

[1] = tested on: mice, multiple cycles of DSS-induced inflammation; assay: Chronic DSS-colitis model (35-day); type: in vivo, mouse
Protocol: FIG. 13. Effects of Compound 62 on the DAI in the chronic DSS-colitis model. Mice received 2 cycles (7 days per cycle) of DSS (1.5% cycle 1 and 1% cycle 2), 2 cycles of normal drinking water and were randomized by DAI on Day 28 into groups of 8 mice. The mice were then treated as follows: No DSS (▪)—normal drinking water and orally dosed with PEG400 every day for 7 days (water control); DSS alone (▴)—drinking water containing 1.5% DSS and orally dosed with PEG daily for 7 days; DSS+Compound 62 (▾)—drinking water containing 1.5% DSS and orally dosed with Compound 62 (50 mg/kg) every day for 7 days; DSS+Dipentum (♦)—drinking water containing 1.5% DSS and orally dosed with Dipentum (50 mg/kg). *p<0.001 versus No DSS group.
A 35-day model of IBD was used to evaluate the effectiveness of the SK inhibitors in mice that experience multiple cycles of DSS-induced inflammation. This chronic model is similar to the acute model, except that the DSS concentration in the drinking water is lower and animals receive periodic exposure to DSS (DSS on days 1-7, water on Days 8-13, DSS on day 14-21, water on Days 22-27 and then DSS until the completion of the study on Day 35). In these experiments, treatment of the mice with an SK inhibitor or Dipentum began on Day 28 and continued daily until the completion of the study. The DAI index was monitored every other day until Day 28 and then daily until Day 35. Animals were sacrificed on Day 35, and changes in the colon length and cytokine profiles were measured.

Hep-G2 (liver) = assay: Human tumor cell line panel, sulforhodamine B; type: cell-based; conditions: HepG2, 48 hours, mean ± sd
Panc-1 (pancreas) = assay: Human tumor cell line panel, sulforhodamine B; type: cell-based; conditions: 48 hours, mean ± sd
[2] = tested on: female DBA/1 mice, collagen-induced arthritis; assay: Collagen-Induced Arthritis (CIA) model; type: in vivo, mouse; conditions: Day 12
Protocol: The anti-arthritis activities of the SK inhibitor Compound 62 were assessed in the Collagen-Induced Arthritis (CIA) model. Female DBA/1 mice were injected subcutaneously in the tail with chicken immunization-grade type II collagen (Chondrex) emulsified in complete Freund's adjuvant (Sigma) at 2 mg/mL. Three weeks later, the mice received a collagen booster in incomplete Freund's adjuvant and were monitored daily thereafter for arthritic symptoms. […] The severity of disease in each animal was quantified by measurement of the hind paw volume with digital calipers. […] Differences among treatment groups were tested using ANOVA.

[3] = Oral pharmacokinetics in mice (PEG400); type: in vivo; conditions: mouse, blood, 100 mg/kg oral gavage in PEG400, female Swiss-Webster mice
Protocol: Oral pharmacokinetic studies were performed on Compounds 62 and 57. Each compound was dissolved in PEG400 and administered to female Swiss-Webster mice at a dose of 100 mg/kg by oral gavage. Mice were anesthetized and blood was removed via cardiac puncture at 5 minutes, 30 minutes, 1, 2, and 8 hours. Concentrations of the test compounds were determined using liquid-liquid extraction, appropriate internal standards and reverse phase HPLC with UV detection. Control blood samples were run to identify compound-specific peaks. Pharmacokinetic parameters were calculated using the WINNONLIN analysis software package (Pharsight). Non-compartmental and compartmental models were tested, with the results shown in Table 7 derived from the best fit equations.

SK-OV-3 (ovary) = assay: Human tumor cell line panel, sulforhodamine B; type: cell-based; conditions: 48 hours, mean ± sd
MCF-7 (breast, ER+) = assay: Human tumor cell line panel, sulforhodamine B; type: cell-based; conditions: MCF7, 48 hours, mean ± sd
[4] = tested on: VEGF-induced vascular leakage; assay: VEGF-induced vascular permeability (Miles assay); type: in vivo, mouse; conditions: 75 mg/kg intraperitoneal or 100 mg/kg oral gavage, nude mice
Protocol: The effects of VEGF on vascular leakage in vivo were measured as described by Miles and Miles (Miles et al., 1952, J Physiol 118: 228). Groups of female athymic nude mice (approximately 20 g) were given intraperitoneal injections of DMSO alone or Compound 62 (75 mg/kg) in a volume of 50 microliters. In some experiments, Compound 62 was administered by oral gavage at a dose of 100 mg/kg. After 30 minutes, 100 μL of 0.5% Evan's blue dye in PBS was administered by tail vein injection. Thirty minutes later, mice received the first of 3 sequential (every 30 minutes) intradermal injections of VEGF (400 ng in 20 μL of PBS per injection) on the left hind flank. As a control, similar injections of PBS were administered on the right hind flank. Thirty minutes after the last injection, leakage of the dye from the vasculature into the skin was assessed by measuring the length and width of the spots of blue-colored skin using calipers.

[5] = tested on: mouse JC mammary adenocarcimona cell line growing subcutaneously in Balb/c mice
Protocol: The antitumor activity of the representative SK inhibitors were evaluated using a syngeneic tumor model that uses the mouse JC mammary adenocarcimona cell line growing subcutaneously in immunocompetent Balb/c mice (Lee et al., 2003, Oncol Res 14: 49).
In FIG. 1, Balb/c mice, 6-8 weeks old, were injected subcutaneously with 10^6 JC cells suspended in phosphate-buffered saline. The SK inhibitors Compounds 62 and 57 were dissolved in PEG400 and administered to mice every-other day at a dose of 100 mg/kg. Body weights and tumor volumes were monitored daily. In FIG. 1, tumor growth is expressed as the tumor volume relative to day 1 for each animal.

[6] = 100 mg/kg orally each day 6 days per week

O=C(NCc1ccncc1)C12CC3CC(C1)CC(c1ccc(Cl)cc1)(C3)C2 [Compound 62, 3-(4-Chloro-phenyl)-adamantane-1-carboxylic acid (pyridin-4-ylmethyl)-amide]
TNFα induction of VCAM-1 (VCAM-1): completely abrogated | TNFα induction of ICAM-1 (ICAM-1): completely abrogated | colon length ([1]; 50 mg/kg oral daily Day 28-35, DSS alone 4.9±0.2, water 7.8±0.3): 6.2±0.2 cm | increase in DAI ([1]; 50 mg/kg oral daily from Day 28 to Day 35, third DSS exposure): significantly suppressed | colon SK expression (immunohistochemistry) ([1]; DSS mice, 50 mg/kg oral daily): clearly reduced | serum level of IL-6 ([1]; at sacrifice, Day 35): reduced | colon S1P levels ([1]; oral 50 mg/kg daily, 7 days prior to sacrifice): significant reductions | colon levels of pro-inflammatory cytokines TNFα, IL-1β, IFN-γ and IL-6 ([1]; treated during the final DSS cycle): reduced levels | IC50 (Hep-G2 (liver)): 6 ± 2.6 µM | IC50 (Panc-1 (pancreas)): 32.8 ± 0.1 µM | reduction in clinical score vs vehicle [2, 6]: 67% | reduction in the increase in hind paw thickness vs vehicle [2, 6]: 90% | histologic damage of tibiotarsal joints ([2]; 100 mg/kg orally): significantly reduced | Cmax [3]: 55.8 µM | Tmax [3]: 0.5 h | half-life [3]: 7.3 h | AUC(0-inf) ([3]; read-out: AUC0→∞ (μM * h)): 452 µM·h | AUC(0-inf) ([3]; read-out: AUC0→∞ (μg * h/mL)): 172 µg·h/mL | IC50 (SK-OV-3 (ovary)): 10.5 ± 2.6 µM | IC50 (MCF-7 (breast, ER+)): 18.4 ± 7.4 µM | vascular leakage in response to VEGF [4]: markedly reduced | inhibition of tumor growth relative to controls ([5]; 100 mg/kg oral every-other day in PEG400): 69% | In vivo activity ([5]; JC tumor model, intraperitoneal (ip) or oral (po) administration): active - ip and po | toxicity to the mice in dose-response study ([5]; mouse, in vivo): No toxicity
